Experiments:
Type in all cases: in vivo
Spodoptera littoralis = Spodoptera littoralis (Egyptian cotton leafworm) cotton leaf disc spray test; settings: foliar, 72 h, 200 ppm spray on cotton leaf discs, L1 larvae, 3 DAT, mortality, feeding behavior, growth regulation
Excerpt: Spodoptera littoralis (Egyptian Cotton Leafworm) Cotton leaf discs were placed on agar in a 24-well microtiter plate and sprayed with test solutions at an application rate of 200 ppm. After drying, the leaf discs were infested with 5 L1 larvae. The samples were checked for mortality, feeding behavior, and growth regulation 3 days after treatment (DAT).

Plutella xylostella = Plutella xylostella (diamond back moth) artificial diet test; settings: 144 h, 200 ppm (concentration in well 18 ppm), L2 larvae, 6 days, larval mortality, growth regulation
Description: (§1) Plutella xylostella (Diamond Back Moth): 24-well microtiter plate (MTP) with artificial diet was treated with test solutions at an application rate of 200 ppm (concentration in well 18 ppm) by pipetting. After drying, the MTP's were infested with L2 larvae (7-12 per well). After an incubation period of 6 days, samples were checked for larval mortality and growth regulation.

Heliothis virescens = Heliothis virescens (tobacco budworm) egg/artificial diet test; settings: 96 h, 200 ppm (concentration in well 18 ppm), eggs 0-24 h old on artificial diet, 4 days, egg mortality, larval mortality, growth regulation
Description: Heliothis virescens (Tobacco Budworm): Eggs (0-24 h old) were placed in 24-well microtiter plate on artificial diet and treated with test solutions at an application rate of 200 ppm (concentration in well 18 ppm) by pipetting. After an incubation period of 4 days, samples were checked for egg mortality, larval mortality, and growth regulation.

Diabrotica balteata = Diabrotica balteata (corn root worm) artificial diet test; settings: 120 h, 200 ppm (concentration in well 18 ppm), L2 larvae, 5 days, larval mortality, growth regulation
Description: as §1, with “Diabrotica Balteata (Corn Root Worm): A” for “Plutella xylostella (Diamond Back Moth):”, “with” for “with L2”, “(L2) (6-10” for “(7-12”, “5” for “6”, “mortality,” for “mortality”

Measured: pest or weed control at 200 ppm

O=C(Nc1cc(F)c(F)cc1C1CCN(Cc2ccc(-c3ccc(F)cc3)cc2)CC1)c1ccnc(Cl)c1 [Compound A3, 2-chloro-N-{4,5-difluoro-2-[1-(4′-fluoro-biphenyl-4-ylmethyl)-piperidin-4-yl]-phenyl}-isonicotinamide]
≥ 80%: all assays above

O=C(Nc1cc(F)c(F)cc1C1CC[N+]([O-])(Cc2ccc(-c3ccc(F)cc3)cc2)CC1)c1ccnc(Cl)c1 (centres unmarked) [Compound B1, 2-chloro-N-{4,5-difluoro-2-[1-(4′-fluoro-biphenyl-4-ylmethyl)-1-oxy-piperidin-4-yl]-phenyl}-isonicotinamide]
≥ 80%: all assays above

O=C(Nc1cc(F)c(Br)nc1C1CCN(Cc2ccc(-c3ccc(F)cc3)cc2)CC1)c1ccnc(Cl)c1 [Compound C5, N-[6-bromo-5-fluoro-1′-(4′-fluoro-biphenyl-4-ylmethyl)-1′,2′,3′,4′,5′,6′-hexahydro-[2,4′]bipyridinyl-3-yl]-2-chloro-isonicotinamide]
≥ 80%: all assays above

O=C(Nc1ccc(C(F)F)nc1C1CCN(Cc2ccc(-c3ccc(F)cc3)cc2)CC1)c1ccnc(Cl)c1 [Compound C6]
≥ 80%: all assays above

O=C(Nc1cc(Cl)c(OCC(F)(F)F)nc1C1CCN(Cc2ccc(-c3ccc(F)cc3)cc2)CC1)c1ccnc(Cl)c1 [Compound C9, 2-chloro-N-[5-chloro-1′-(4′-fluoro-biphenyl-4-ylmethyl)-6-(2,2,2-trifluoro-ethoxy)-1′,2′,3′,4′,5′,6′-hexahydro-[2,4′]bipyridinyl-3-yl]-isonicotinamide]
≥ 80%: all assays above

COc1ccc(NC(=O)c2ccnc(Cl)c2)c(C2CCN(Cc3ccc(-c4ccc(F)cc4)cc3)CC2)n1 [Compound C10, 2-chloro-N-[1′-(4′-fluoro-biphenyl-4-ylmethyl)-6-methoxy-1′,2′,3′,4′,5′,6′-hexahydro-[2,4′]bipyridinyl-3-yl]-isonicotinamide]
≥ 80%: all assays above

C=Cc1ccc(NC(=O)c2ccnc(Cl)c2)c(C2CCN(Cc3ccc(-c4ccc(F)cc4)cc3)CC2)n1 [Compound C11, 2-chloro-N-[1′-(4′-fluoro-biphenyl-4-ylmethyl)-6-vinyl-1′,2′,3′,4′,5′,6′-hexahydro-[2,4′]bipyridinyl-3-yl]-isonicotinamide]
≥ 80%: all assays above

O=C(Nc1cc(Cl)c(C2CC2)nc1C1CCN(Cc2ccc(-c3ccc(F)cc3)cc2)CC1)c1ccnc(Cl)c1 [Compound C13, 2-chloro-N-[5-chloro-6-cyclopropyl-1′-(4′-fluoro-biphenyl-4-ylmethyl)-1′,2′,3′,4′,5′,6′-hexahydro-[2,4′]bipyridinyl-3-yl]-isonicotinamide]
≥ 80%: all assays above

O=C(Nc1cc(C(F)(F)F)c(Br)nc1C1CCN(Cc2ccc(-c3ccc(F)cc3)cc2)CC1)c1ccnc(Cl)c1 [Compound C15]
≥ 80%: all assays above

O=C(Nc1cc(C(F)(F)F)c(Cl)nc1C1CCN(Cc2ccc(-c3ccc(F)cc3)cc2)CC1)c1ccnc(Cl)c1 [Compound C16]
≥ 80%: all assays above

O=C(Nc1cc(F)c(Cl)nc1C1CCN(Cc2ccc(-c3ccc(F)cc3)cc2)CC1)c1ccnc(Cl)c1 [Compound C17, 2-chloro-N-[6-chloro-5-fluoro-1′-(4′-fluoro-biphenyl-4-ylmethyl)-1′,2′,3′,4′,5′,6′-hexahydro-[2,4′]bipyridinyl-3-yl]-isonicotinamide]
≥ 80%: all assays above

O=C(Nc1cc(Br)cnc1C1CCN(Cc2ccc(-c3ccc(F)cc3)cc2)CC1)c1ccnc(Cl)c1 [Compound C23, N-[5-bromo-1′-(4′-fluoro-biphenyl-4-ylmethyl)-1′,2′,3′,4′,5′,6′-hexahydro-[2,4′]bipyridinyl-3-yl]-2-chloro-isonicotinamide]
≥ 80%: all assays above

O=C(Nc1cc(Br)c(Cl)nc1C1CCN(Cc2ccc(-c3ccc(F)cc3)cc2)CC1)c1ccnc(Cl)c1 [Compound C24, N-[5-bromo-6-chloro-1′-(4′-fluoro-biphenyl-4-ylmethyl)-1′,2′,3′,4′,5′,6′-hexahydro-[2,4′]bipyridinyl-3-yl]-2-chloro-isonicotinamide]
≥ 80%: all assays above

O=C(Nc1cc(F)c(F)nc1C1CCN(Cc2ccc(-c3ccc(F)cc3)cc2)CC1)c1ccnc(Cl)c1 [Compound C25, 2-chloro-N-{1′-(4′-fluoro-biphenyl-4-ylmethyl)-5,6-difluoro-1′,2′,3′,4′,5′,6′-hexahydro-[2,4′]bipyridinyl-3-yl}-isonicotinamide]
≥ 80%: all assays above

Cc1cc(NC(=O)c2ccnc(Cl)c2)c(C2CCN(Cc3ccc(-c4ccc(F)cc4)cc3)CC2)nc1Cl [Compound C26, 2-chloro-N-[6-chloro-1′-(4′-fluoro-biphenyl-4-ylmethyl)-5-methyl-1′,2′,3′,4′,5′,6′-hexahydro-[2,4′]bipyridinyl-3-yl]-isonicotinamide]
≥ 80%: all assays above

O=C(Nc1c(C2CCN(Cc3ccc(-c4ccc(F)cc4)cc3)CC2)nc(Cl)c(Cl)c1Cl)c1ccnc(Cl)c1 [Compound C30, 2-chloro-N-{4,5,6-trichloro-1′-(4′-fluoro-biphenyl-4-ylmethyl)-1′,2′,3′,4′,5′,6′-hexahydro-[2,4′]bipyridinyl-3-yl}-isonicotinamide]
≥ 80%: all assays above

O=C(Nc1cc(C(F)(F)F)c(F)nc1C1CCN(Cc2ccc(-c3ccc(F)cc3)cc2)CC1)c1ccnc(Cl)c1 [Compound C31, 2-chloro-N-{1′-(4′-fluoro-biphenyl-4-ylmethyl)-6-fluoro-5-trifluoromethyl-1′,2′,3′,4′,5′,6′-hexahydro-[2,4′]bipyridinyl-3-yl}-isonicotinamide]
≥ 80%: all assays above

O=C(Nc1ccc(OC(F)F)nc1C1CCN(Cc2ccc(-c3ccc(F)cc3)cc2)CC1)c1ccnc(Cl)c1 [Compound C40, 2-chloro-N-{1′-(4′-fluoro-biphenyl-4-ylmethyl)-6-difluoromethoxy-1′,2′,3′,4′,5′,6′-hexahydro-[2,4′]bipyridinyl-3-yl}-isonicotinamide]
≥ 80%: all assays above

O=C(Nc1c(F)cc(C(F)(F)F)nc1C1CCN(Cc2ccc(-c3ccc(F)cc3)cc2)CC1)c1ccnc(Cl)c1 [Compound C41, 2-chloro-N-{1′-(4′-fluoro-biphenyl-4-ylmethyl)-4-fluoro-6-trifluoromethyl-1′,2′,3′,4′,5′,6′-hexahydro-[2,4′]bipyridinyl-3-yl}-isonicotinamide]
≥ 80%: all assays above

O=C(Nc1ccc(C(F)(F)F)nc1C1CC[N+]([O-])(Cc2ccc(-c3ccc(F)cc3)cc2)CC1)c1ccnc(Cl)c1 (centres unmarked) [Compound D1, 2-chloro-N-[1′-(4′-fluoro-biphenyl-4-ylmethyl)-1′-oxy-6-trifluoromethyl-1′,2′,3′,4′,5′,6′-hexahydro-[2,4′]bipyridinyl-3-yl]-isonicotinamide]
≥ 80%: all assays above

Source: patent US10034476B2, “Insecticidal phenyl-or pyridyl-piperdine compounds” (Syngenta Participations AG, priority 2008, dated 2018)
